What was measured:
[1] = biological target: T1, EP2-Subtyp des humanen PGE2-Rezeptors (Homo sapiens, UniProt P43116); test: cAMP antagonism test (HTRF cAMP detection, in presence of PGE2); format: cell-based; details: cAMP Antagonismustest; PGE2 as agonist; read-out: Antagonismus [IC50
T1 construct: host or cells: cells in a culture plate
Source text: 1. Nachweis des Antagonismus des humanen Prostaglandin E2 (Subtyp EP2) Rezeptorsignals
(§1) Die Bindung von PGE2 an den EP2-Subtyp des humanen PGE2-Rezeptors induziert die Aktivierung membranständiger Adenylatzyklasen und führt zur Bildung von cAMP. In Gegenwart des Phosphodiesteraseinhibitors IBMX wird das durch diese Stimulation akkumulierte und mittels Zell-Lyse freigesetzte cAMP in einem kompetitiven Nachweisverfahren eingesetzt. In diesem Test konkurriert das cAMP im Lysat mit cAMP-XL665 um die Bindung eines Eu-Kryptat markierten Anti-cAMP Antikörpers.
(§2) Dabei entsteht in Abwesenheit von zellulärem cAMP ein maximales Signal, welches auf der Kopplung dieses Antikörpers an das cAMP-XL665 Molekül beruht. Dadurch entsteht nach Anregung bei 337 nm ein auf FRET (fluorescence resonance energy transfer) basierendes, langanhaltendes Emissionssignal bei 665 nm (und bei 620 nm). Beide Signale werden in einem geeigneten Messgerät zeitlich versetzt, d.h. nach Abklingen der Hintergrundsfluoreszenz gemessen. Jegliche Erhöhung des durch Prostglandin-E2-Gabe bedingten niedrigen FRET-Signals (gemessen als Well-Ratio-Veränderung = Emission665nm/Emission620nm * 10000) zeigt die Wirkung von Antagonisten.
1.2.1. Test auf Antagonismus (Angaben pro Vertiefung einer 384-Loch-Platte):
Die in einer Testplatte und 30 % DMSO vorgelegten Substanzlösungen (0.75 µl) wurden in 16 µl einer KRSB+IBMX-Stimulationslösung gelöst (1 X Krebs-Ringer Bicarbonate Buffer; Sigma-Aldrich # K-4002; inklusive 750 µM 3-Isobutyl-1-methylxanthine Sigma-Aldrich # I-7018), anschließend wurden 15 µl davon in eine medienfreie Zellkulturplatte überführt, die kurz zuvor mit KRSB gewaschen worden war.
Nach einer 30-minütigen Vorinkubation bei Raumtemperatur (RT) wurden 5 µl einer 4xPGE2 Lösung (11 nM) zugegeben und in Gegenwart des Agonisten für weitere 60 min bei RT inkubiert (Volumen: ∼ 20 µl), bevor die Reaktion anschließend durch Zugabe von 5 µl Lysispuffer gestoppt und für weitere 20 min bei RT inkubiert wird (Volumen: ∼ 25 µl). Das Zell-Lysat wurde anschließend in eine Messplatte überführt und entsprechend den Herstellerangaben (cyclic AMP kit Cisbio International # 62AMPPEC) gemessen.

Kumulus-Eizell Komplexe = test: cumulus expansion test in vitro; format: cell-based, Mäusen (Stamm : CD1 (ICR)); details: competing with PGE2
Source text: Im prä-ovulatorischen antralen Follikel ist die Eizelle von Kumulus Zellen umgeben, die einen dichten Zellkranz um die Eizelle bilden. Nach dem LH-Peak (Lutenisierendes Hormon) wird eine Reihe von Prozessen aktiviert, die eine starke morphologische Veränderung dieses Zellkranzes aus Kumulus Zellen zur Folge hat. Hierbei bilden die Kumulus Zellen eine extrazelluläre Matrix, die zur sogenannten Kumulus Expansion führt (Vanderhyden et al. Dev Biol. 1990 Aug;140(2):307-317). Diese Kumulus Expansion ist ein wichtiger Bestandteil des ovulatorischen Prozesses und der nachfolgenden Möglichkeit zur Fertilisation. Bei der Kumulus Expansion sind Prostaglandine und hier das Prostaglandin E2, dessen Synthese durch den LH-Peak induziert wird, von entscheidender Bedeutung. Prostanoid EP2 Knock-out Mäuse (Hizaki et al. Proc Natl Acad Sci U S A. 1999 Aug 31 ;96(18):10501-6.) zeigen eine deutlich verminderte Kumulus Expansion und starke Subfertilität, was die Bedeutung des Prostanoid EP2-Rezeptors für diesen Prozess demonstriert.
2.2. Kumulus Expansions Test in vitro
In immaturen weiblichen Mäusen (Stamm : CD1 (ICR) von Charles River) wurde in einem Alter von 14 - 18 Tagen die Follikulogenese durch eine einmalige Gabe (intraperitoneal) von 10 I.E. PMSG (Pregnant Mare Serum Gonadotropine; Sigma G-4877, Lot 68H0909) induziert. […]

[2] = biological target: T1, EP2-Subtyp des humanen PGE2-Rezeptors; test: cellular agonism test (HTRF cAMP detection, without PGE2); format: cell-based
Source text: as §1, §2
1.2.2. Test auf Agonismus (Angaben pro Vertiefung einer 384-Loch-Platte): […]

T1 sequence (P43116 whole entry): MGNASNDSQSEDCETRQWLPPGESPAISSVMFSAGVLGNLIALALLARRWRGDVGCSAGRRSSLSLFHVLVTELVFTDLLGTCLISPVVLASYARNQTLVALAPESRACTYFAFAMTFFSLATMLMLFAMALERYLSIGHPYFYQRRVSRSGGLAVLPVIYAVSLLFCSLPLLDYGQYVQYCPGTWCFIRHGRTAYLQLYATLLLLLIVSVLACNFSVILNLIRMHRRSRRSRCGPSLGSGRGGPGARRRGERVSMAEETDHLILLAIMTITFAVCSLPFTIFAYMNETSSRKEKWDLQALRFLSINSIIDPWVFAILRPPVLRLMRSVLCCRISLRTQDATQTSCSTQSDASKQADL

Compound: Cc1[nH]c2c(F)ccc(C)c2c1CCNC(=O)c1cc2cc(C(=O)NCCC(N)=O)ccc2[nH]1 [Beispiel 5, 1H-Indol-2,5-dicarbonsäure 5-[(2-carbamoyl-ethyl)-amid] 2-{[2-(7-fluor-2,4-dimethyl-1H-indol-3-yl)-ethyl]-amid}]
- IC50 [1]: 297 nM

Compound: Cc1[nH]c2c(F)ccc(C)c2c1CCNC(=O)c1cc2ccc(C(=O)NCCC(N)=O)cc2[nH]1 [Beispiel 10, 1H-Indol-2,6-dicarbonsäure 6-[(2-carbamoyl-ethyl)-amid] 2-{[2-(7-fluor-2,4-dimethyl-1H-indol-3-yl)-ethyl]-amid}]
- IC50 [1]: 46 nM

Compound: CC(C)Oc1ccc2c(=O)c3cc(C(=O)O)ccc3oc2c1 [AH 6809, reference compound]
- Unterdrückung der Kumulus Expansion (Kumulus-Eizell Komplexe; 100 - 200 µM): ca. 30%

Compound: Cc1[nH]c2c(F)ccc(C)c2c1CCNC(=O)c1cc2ccc(C(=O)NCC(C)(C)CO)cc2[nH]1 [Beispiel 8, 1H-Indol-2,6-dicarbonsäure 2-{[2-(7-fluor-2,4-dimethyl-1H-indol-3-yl)-ethyl]-amid} 6-[(3-hydroxy-2,2-dimethyl-propyl)-amid]]
- IC50 [1]: 122 nM

Compound: Cc1[nH]c2c(F)ccc(C)c2c1CCNC(=O)c1cc2ccc(C(=O)NCC(N)=O)cc2[nH]1 [Beispiel 6, 1H-Indol-2,6-dicarbonsäure 6-carbamoylmethyl-amid 2-{[2-(7-fluor-2,4-dimethyl-1H-indol-3-yl)-ethyl]-amid}]
- IC50 [1]: 22 nM
- Unterdrückung der Kumulus Expansion (Kumulus-Eizell Komplexe; 5 µM): ca. 67%
- Wirkung im zellulären Agonismustest [2]: keine Inhibition

From patent publication EP2149554A1, “Indolyamides as modulators for an EP2 receptor” (Bayer Schering Pharma Aktiengesellschaft, priority 2008, dated 2010)
